# Target: T1, Human NMDA (NR1/NR2B) Receptor (Homo sapiens, UniProt Q13224)
# T1 construct: host or cells: HEK293
# Experiment: NR2B Ca2+ influx assay
# Format: cell-based
# Conditions: 10 μM compound; HEK293 cells expressing GRIN1 and GRIN2B; glutamic acid/glycine-induced Ca2+ influx, Fluo-4 fluorescence; read-out: inhibitory rate (10 μM compound concentration)
# Text: Experimental Example 1 NR2B Ca^2+ Influx Assay
# To confirm the “antagonistic action on an NMDA receptor containing the NR2B subunit” of the compound of the present invention, human embryonic kidney cell expressing the “NMDA receptor composed of four subunits including 2 sets of heterodimers of NR1 and NR2B”, specifically HEK293 cell expressing human glutamate ionotropic receptor NMDA type subunit 1 (GRIN1) and human glutamate ionotropic receptor NMDA type subunit 2B (GRIN2B), was used and the activation suppressive effect (inhibitory activity) on the receptors by the compound of the present invention was measured.
# HEK293 cells that express GRIN1 and GRIN2B were purchased from ChanTest (Human NMDA (NR1/NR2B) Receptor-expressing, stable replicating cell line (HEK293) catalog No. CT6121).
# As an index of the NMDA receptor activation, intracellular calcium ion (Ca^2+) influx caused by the binding of glycine and glutamic acid with NR1 and NR2B, respectively, was used.
# HEK293 cells that express GRIN1 and GRIN2B were cultured in a cell culture flask in DMEM/F-12 (COSMO BIO, 10-092-CM) medium added with 10% FBS (fetal bovine serum, AusGene), 100 units/mL penicillin, 100 μg/mL streptomycin, 500 μg/mL neomycin, 100 μg/mL Zeocin (registered trade mark, Invitrogen), 5 μg/mL Blasticidin, in an incubator (37° C., 5% CO2).
# The cells were detached from flask with trypsin the day before the assay, suspended in a seeding medium (DMEM (Invitrogen, 31053) added with 10% FBS, 100 units/mL penicillin, 100 μg/mL streptomycin) at 8×10^5 cells/mL, seeded by 25 μL/well in a 384-well plate (Falcon, 356663) at 20000 cells/well, and cultured overnight in an incubator. On the day of the assay, tetracycline (Wako Pure Chemical Industries, Ltd., 209-16561) was diluted with the seeding medium at 2 μg/mL, added at 25 μL/well to the plate seeded with the cells, and cultured for 2 hr in an incubator. Thereafter, the medium was removed, and the cells were washed with 50 μL/well assay buffer (137 mM NaCl, 4 mM KCl, 1.8 mM CaCl2, 10 mM HEPES (pH 7.2), 10 mM Glucose, 0.1% BSA). Then, a loading buffer (assay buffer added with 2.5 μM Fluo-4AM, 2 mM Amaranth, 1 mM Tartrazine) was added at 25 μL/well, and incubation was performed in the incubator for 30 min, and at room temperature for 15 min. A solution (25 μL/well) of the Example compound diluted with the above-mentioned assay buffer at 30 μM (final concentration 10 μM) was added, and the cells were stood for 15 min at room temperature. Using FDSS7000EX/μCELL (Hamamatsu Photonics K.K.), 25 μL/well of an assay buffer containing 30 μM glutamic acid, 30 μM glycine was added, and the fluorescence signal at wavelength of Excitation 480 nm, Emission 540 nm was measured every 3 seconds for 5 min. The inhibitory activity was calculated as a relative activity value (inhibitory rate) that inhibits 100% of the cumulative value of the fluorescence value of a well added with an assay buffer free of glutamic acid, glycine, relative to the cumulative value of the fluorescence value of each well.
# T1 sequence (Q13224 27-1484, other chains not shown): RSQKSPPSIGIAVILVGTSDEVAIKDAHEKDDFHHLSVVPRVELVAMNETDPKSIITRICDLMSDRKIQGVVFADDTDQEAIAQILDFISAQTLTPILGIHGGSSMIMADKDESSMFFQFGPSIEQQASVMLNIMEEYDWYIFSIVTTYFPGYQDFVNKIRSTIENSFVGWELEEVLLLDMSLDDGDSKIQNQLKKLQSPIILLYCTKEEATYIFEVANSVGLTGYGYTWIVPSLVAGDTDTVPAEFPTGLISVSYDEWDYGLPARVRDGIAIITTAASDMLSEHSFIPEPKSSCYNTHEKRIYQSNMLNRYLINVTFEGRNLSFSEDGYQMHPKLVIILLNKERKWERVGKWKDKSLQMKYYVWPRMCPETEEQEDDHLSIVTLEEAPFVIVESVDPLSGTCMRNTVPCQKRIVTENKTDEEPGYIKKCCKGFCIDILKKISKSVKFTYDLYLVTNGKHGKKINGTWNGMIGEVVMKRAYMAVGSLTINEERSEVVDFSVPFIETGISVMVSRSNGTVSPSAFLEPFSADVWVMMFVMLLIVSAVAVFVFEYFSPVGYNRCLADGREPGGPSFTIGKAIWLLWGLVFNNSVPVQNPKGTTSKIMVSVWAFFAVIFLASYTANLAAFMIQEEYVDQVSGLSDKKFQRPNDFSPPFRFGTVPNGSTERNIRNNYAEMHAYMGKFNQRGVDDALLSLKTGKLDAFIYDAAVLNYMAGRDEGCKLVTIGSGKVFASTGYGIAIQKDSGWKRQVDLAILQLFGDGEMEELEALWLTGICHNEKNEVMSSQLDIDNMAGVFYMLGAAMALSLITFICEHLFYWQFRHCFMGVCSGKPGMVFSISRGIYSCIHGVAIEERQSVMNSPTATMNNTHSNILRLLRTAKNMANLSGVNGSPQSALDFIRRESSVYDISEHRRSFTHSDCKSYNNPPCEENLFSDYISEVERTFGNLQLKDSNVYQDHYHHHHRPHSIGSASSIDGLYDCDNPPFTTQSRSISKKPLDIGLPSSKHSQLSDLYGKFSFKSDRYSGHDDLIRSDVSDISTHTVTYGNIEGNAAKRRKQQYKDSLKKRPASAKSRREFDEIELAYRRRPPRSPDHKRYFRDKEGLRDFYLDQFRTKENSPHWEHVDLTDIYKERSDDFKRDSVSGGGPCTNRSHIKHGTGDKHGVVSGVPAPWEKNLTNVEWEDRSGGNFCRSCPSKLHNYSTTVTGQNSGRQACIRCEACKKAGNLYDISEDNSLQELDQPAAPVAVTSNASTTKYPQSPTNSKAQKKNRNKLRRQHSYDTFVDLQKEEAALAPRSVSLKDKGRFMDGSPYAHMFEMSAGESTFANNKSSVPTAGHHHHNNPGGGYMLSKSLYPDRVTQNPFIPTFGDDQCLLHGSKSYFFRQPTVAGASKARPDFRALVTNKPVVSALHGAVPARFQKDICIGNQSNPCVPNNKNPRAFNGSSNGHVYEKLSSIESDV
row,inhibition at 10 µM [%],SMILES
1,94,"CCc1ccncc1CNC(=O)c1cnc(OC(F)F)c(F)c1 [Example 38, 6-(difluoromethoxy)-N-[(4-ethylpyridin-3-yl)methyl]-5-fluoropyridine-3-carboxamide]"
2,91,"COc1ncncc1CNC(=O)c1cc(F)c(OC)c(Cl)c1 [Example 84, 3-chloro-5-fluoro-4-methoxy-N-[(4-methoxypyrimidin-5-yl)methyl]benzainide]"
3,94,"O=C(NCc1cnccc1OC(F)F)c1cnc(OC(F)F)c(Cl)c1 [Example 111, 5-chloro-6-(difluoromethoxy)-N-[(4-(difluoromethoxy)pyridin-3-yl)methyl]pyridine-3-carboxamide]"
4,93,"COc1ncncc1CNC(=O)c1ccc(OC(F)F)c(F)c1 [Example 13, 4-(difluoromethoxy)-3-fluoro-N-[(4-methoxypyrimidin-5-yl)methyl]benzamide]"
5,95,"COc1ncncc1CNC(=O)c1ccc(OC(F)(F)F)c(F)c1 [Example 22, 3-fluoro-N-[(4-methoxypyrimidin-5-yl)methyl]-4-(trifluoromethoxy)benzamide]"
6,95,"O=C(NCc1cncnc1OC1CC1)c1cc(F)c(OC(F)F)c(F)c1 [Example 76, N-{[4-(cyclopropyloxy)-pyrimidin-5-yl]methyl}-4-(difluoromethoxy)-3,5-difluorobenzamide]"
7,88,"COc1ccc(C(=O)NCc2cnccc2C)cc1F [Example 60, 3-fluoro-4-methoxy-N-[(4-methylpyridin-3-yl)methyl]benzamide]"
8,96,"Cc1c(F)cncc1CNC(=O)c1cnc(OC(F)F)c(F)c1 [Example 40, 6-(difluoromethoxy)-5-fluoro-N-[(5-fluoro-4-methylpyridin-3-yl)methyl]pyridine-3-carboxamide]"
9,93,"CCOc1ncncc1CNC(=O)c1cc(F)c(OC(F)F)c(F)c1 [Example 87, 4-(difluoromethoxy)-N-[(4-ethoxypyrimidin-5-yl)methyl]-3,5-difluorobenzamide]"
10,84,"COc1ncc(C(=O)NCc2cnccc2C)cc1Cl [Example 66, 5-chloro-6-methoxy-N-[(4-methylpyridin-3-yl)methyl]pyridine-3-carboxamide]"
11,93,"Cc1ccncc1CNC(=O)c1cnc(C2CC2(F)F)c(Cl)c1 (stereo not shown) [Example 102, 5-chloro-6-(2,2-difluorocyclopropyl)-N-[(4-methylpyridin-3-yl)methyl]pyridine-3-carboxamide]"
12,94,"CC(C)Oc1ncncc1CNC(=O)c1cnc(OC(F)F)c(F)c1 [Example 20, 6-(difluoromethoxy)-5-fluoro-N-({4-[(propan-2-yl)oxy]pyrimidin-5-yl}methyl)pyridine-3-carboxamide]"
13,92,"COc1c(F)cc(C(=O)NCc2cncc(F)c2C)cc1F [Example 67, 3,5-difluoro-N-[(5-fluoro-4-methylpyridin-3-yl)methyl]-4-methoxybenzamide]"
14,92,"COc1ncncc1CNC(=O)c1cnc(C2CC2)c(Cl)c1 [Example 83, 5-chloro-6-cyclopropyl-N-[(4-methoxypyrimidin-5-yl)methyl]pyridine-3-carboxamide]"
15,96,"O=C(NCc1cnccc1OC1CC1)c1cnc(OC(F)F)c(F)c1 [Example 14, N-{[4-(cyclopropyloxy)-pyridin-3-yl]methyl}-6-(difluoromethoxy)-5-fluoropyridine-3-carboxamide]"
16,95,"O=C(NCc1cncc(Br)c1)c1ccc(OC(F)(F)F)cc1 [Example 3, N-[(5-bromopyridin-3-yl)methyl]-4-(trifluoromethoxy)benzamide]"
17,91,"CCOc1ncc(C(=O)NCc2cnccc2C)cc1F [Example 45, 6-ethoxy-5-fluoro-N-[(4-methylpyridin-3-yl)methyl]pyridine-3-carboxamide]"

row,inhibition at 10 µM [%],SMILES
1,87,"CCc1ncncc1CNC(=O)c1cnc(OC(F)F)c(F)c1 [Example 28, 6-(difluoromethoxy)-N-[(4-ethylpyrimidin-5-yl)methyl]-5-fluoropyridine-3-carboxamide]"
2,96,"Cc1ccncc1CNC(=O)c1cnc(OC(F)F)c(F)c1 [Example 18, 6-(difluoromethoxy)-5-fluoro-N-[(4-methylpyridin-3-yl)methyl]pyridine-3-carboxamide]"
3,93,"CCOc1ncc(C(=O)NCc2cnccc2C)cc1Cl [Example 65, 5-chloro-6-ethoxy-N-[(4-methylpyridin-3-yl)methyl]pyridine-3-carboxamide]"
4,95,"CCOc1ccncc1CNC(=O)c1ccc(OC(F)F)c(F)c1 [Example 11, 4-(difluoromethoxy)-N-[(4-ethoxypyridin-3-yl)methyl]-3-fluorobenzamide]"
5,92,"CCOc1ncncc1CNC(=O)c1cnc(OC(F)F)c(Cl)c1 [Example 88, 5-chloro-6-(difluoromethoxy)-N-[(4-ethoxypyrimidin-5-yl)methyl]pyridine-3-carboxamide]"
6,68,"Cc1ncncc1CNC(=O)c1cnc(OC(F)F)c(F)c1 [Example 31, 6-(difluoromethoxy)-5-fluoro-N-[(4-methylpyrimidin-5-yl)methyl]pyridine-3-carboxamide]"
7,94,"Cc1c(F)cncc1CNC(=O)c1ccc(OC(F)F)c(F)c1 [Example 69, 4-(difiuoromethoxy)-3-fluoro-N-[(5-fluoro-4-methylpyridin-3-yl)methyl]benzamide]"
8,92,"O=C(NCc1cncnc1C1CC(F)(F)C1)c1cnc(OC(F)F)c(F)c1 [Example 36, N-{[4-(3,3-difluorocyclobutyl)-pyrimidin-5-yl]methyl}-6-(difluoromethoxy)-5-fluoropyridine-3-carboxamide]"
9,89,"COc1ncncc1CNC(=O)c1cnc(C2CC2)c(F)c1 [Example 82, 6-cyclopropyl-5-fluoro-N-[(4-methoxypyrimidin-5-yl)methyl]pyridine-3-carboxamide]"
10,93,"Cc1ccncc1CNC(=O)c1csc(C2CC2)c1 [Example 56, 5-cyclopropyl-N-[(4-methylpyridin-3-yl)methyl]thiophene-3-carboxamide]"
11,90,"CCOc1ncncc1CNC(=O)c1cc(F)c(OC)c(F)c1 [Example 86, N-[(4-ethoxypyrimidin-5-yl)methyl]-3,5-difluoro-4-methoxybenzamide]"
12,97,"COc1ccncc1CNC(=O)c1cnc(OC(F)(F)F)c(F)c1 [Example 34, 5-fluoro-N-[(4-methoxypyridin-3-yl)methyl]-6-(trifluoromethoxy)pyridine-3-carboxamide]"
13,90,"COc1ccncc1CNC(=O)c1ccc(C(F)(F)F)c(F)c1 [Example 9, 3-fluoro-N-[(4-methoxypyridin-3-yl)methyl]-4-(trifluoromethyl)benzamide]"
14,93,"Cc1c(F)cncc1CNC(=O)c1cnc(OC(F)F)c(Cl)c1 [Example 73, 5-chloro-6-(difluoromethoxy)-N-[(5-fluoro-4-methylpyridin-3-yl)methyl]pyridine-3-carboxamide]"
15,93,"CCOc1ncc(C(=O)NCc2cncnc2OC2CC2)cc1F [Example 75, N-{[4-(cyclopropyloxy)-pyrimidin-5-yl]methyl}-6-ethoxy-5-fluoropyridine-3-carboxamide]"
16,91,"O=C(NCc1cnccc1C(F)F)c1cnc(OC(F)F)c(F)c1 [Example 70, 6-(difluoromethoxy)-N-{[4-(difluoromethyl)pyridin-3-yl]methyl)-5-fluoropyridine-3-carboxamide]"
17,93,"Cc1c(F)cncc1CNC(=O)c1cc(F)c(OC(F)F)c(F)c1 [Example 68, 4-(difluoromethoxy)-3,5-difluoro-N-[(5-fluoro-4-methylpyridin-3-yl)methyl]benzamide]"
